Data published in patent US9988400B2 (Genentech, Inc., priority 2013, dated 2018).

Target: T1, HEK cells stably transfected with tetracycline inducible hNR1 and hNR2A (Homo sapiens, UniProt Q05586+Q12879)
T1 construct: expressed in transfected cells; host or cells: HEK cells, stably transfected, tetracycline/doxycycline inducible
Experiment: Assay 1: Cell-Based Assay, cytosolic calcium response to positive allosteric modulators (with 30 μM glycine and 300 nM L-glutamate, EC30)
Details: for EC50: cytosolic calcium response, with 30 μM glycine and 300 nM L-glutamate (EC30), — = no plateau was reached; for Max %: responses scaled relative to 100 μM L-glutamate maximal response (100%) and 0 μM L-glutamate (0%)
Procedure, shortened: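 Cells induced 24 h with 7.5 μg mL^−1 doxycycline plus 500 μM (+)-ketamine, loaded 60 min at 37 °C with calcium dye in Mg-free HBSS (1.8 mM Ca, probenecid, 10 μM (+)-ketamine, pH 7.15). Peak RFU over 5 min after compound addition, scaled to 100 μM L-glutamate (100%) and 0 μM (0%); four-parameter Hill fit for EC50, max % if no plateau.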

T1 sequence (Q12879 23-1464, other chains not shown): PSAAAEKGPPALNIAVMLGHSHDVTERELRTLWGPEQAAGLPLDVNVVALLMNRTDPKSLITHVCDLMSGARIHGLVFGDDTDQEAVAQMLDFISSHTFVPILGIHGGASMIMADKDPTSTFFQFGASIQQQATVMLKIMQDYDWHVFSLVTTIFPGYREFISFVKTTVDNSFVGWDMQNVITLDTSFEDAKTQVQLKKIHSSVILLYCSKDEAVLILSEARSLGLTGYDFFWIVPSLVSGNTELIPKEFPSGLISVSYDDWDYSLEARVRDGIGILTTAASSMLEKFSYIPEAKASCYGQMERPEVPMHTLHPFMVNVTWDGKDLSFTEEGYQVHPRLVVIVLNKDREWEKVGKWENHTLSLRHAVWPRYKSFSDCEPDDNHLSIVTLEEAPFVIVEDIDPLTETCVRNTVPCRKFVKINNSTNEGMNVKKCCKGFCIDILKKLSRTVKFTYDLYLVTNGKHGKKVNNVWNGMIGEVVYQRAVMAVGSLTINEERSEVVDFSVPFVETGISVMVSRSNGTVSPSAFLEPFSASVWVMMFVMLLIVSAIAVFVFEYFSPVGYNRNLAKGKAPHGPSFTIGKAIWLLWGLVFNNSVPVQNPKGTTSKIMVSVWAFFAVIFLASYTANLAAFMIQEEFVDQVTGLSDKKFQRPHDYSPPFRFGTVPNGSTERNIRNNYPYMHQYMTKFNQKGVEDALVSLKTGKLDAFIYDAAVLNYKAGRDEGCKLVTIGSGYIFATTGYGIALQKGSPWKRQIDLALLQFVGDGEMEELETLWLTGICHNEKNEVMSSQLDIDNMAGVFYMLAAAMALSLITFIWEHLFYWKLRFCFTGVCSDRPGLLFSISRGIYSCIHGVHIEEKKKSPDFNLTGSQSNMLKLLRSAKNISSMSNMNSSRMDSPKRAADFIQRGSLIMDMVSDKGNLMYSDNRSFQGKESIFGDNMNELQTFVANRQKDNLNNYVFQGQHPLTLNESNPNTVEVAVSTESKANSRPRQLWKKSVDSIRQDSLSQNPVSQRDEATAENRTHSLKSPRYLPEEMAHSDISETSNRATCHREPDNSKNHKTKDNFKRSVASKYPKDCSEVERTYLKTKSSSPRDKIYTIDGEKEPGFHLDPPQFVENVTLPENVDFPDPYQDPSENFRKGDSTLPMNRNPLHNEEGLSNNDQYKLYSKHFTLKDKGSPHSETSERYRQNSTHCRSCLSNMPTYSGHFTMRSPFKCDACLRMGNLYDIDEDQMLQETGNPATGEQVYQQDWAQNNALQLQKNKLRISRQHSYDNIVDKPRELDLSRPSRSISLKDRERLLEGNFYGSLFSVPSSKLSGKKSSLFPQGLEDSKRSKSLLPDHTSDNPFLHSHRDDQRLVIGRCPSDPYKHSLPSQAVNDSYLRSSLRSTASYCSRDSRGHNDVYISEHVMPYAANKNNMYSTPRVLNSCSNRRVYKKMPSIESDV

Structure (SMILES)	EC50 (Table 2) [µM]	Max % (Table 2) [%]	EC50 (Table 3) [µM]
CCN(Cc1cc(=O)n2c(CO)c(C)sc2n1)c1ccc(F)cc1 [Example 10.12, 7-((ethyl(4-fluorophenyl)amino)methyl)-3-(hydroxymethyl)-2-methyl-5H-thiazolo[3,2-a]pyrimidin-5-one]	2.1	149	
CCNC(=O)c1c(C(F)F)sc2nc(Cn3nc(Cl)cc3C(F)(F)F)cc(=O)n12 [compound 259, 7-[[3-chloro-5-(trifluoromethyl)pyrazol-1-yl]methyl]-2-(difluoromethyl)-N-ethyl-5-oxo-thiazolo[3,2-a]pyrimidine-3-carboxamide]			0.749
CCN(Cc1cc(=O)n2c3c(sc2n1)CCN(C)C3)c1ccc(F)cc1 [Example 8.10, 2-[(N-ethyl-4-fluoro-anilino)methyl]-7-methyl-8,9-dihydro-6H-pyrido[3,4]thiazolo[1,4-a]pyrimidin-4-one]	12.5	127	
CC(=O)c1c(C(F)(F)F)sc2nc(Cn3nc(C(F)(F)F)cc3Cl)cc(=O)n12 [compound 166, 3-acetyl-7-[[5-chloro-3-(trifluoromethyl)pyrazol-1-yl]methyl]-2-(trifluoromethyl)thiazolo[3,2-a]pyrimidin-5-one]			2.69
Cc1sc2nc(Cn3nc(C(F)(F)F)cc3Cl)cc(=O)n2c1-c1ncco1 [compound 158, 7-[[5-chloro-3-(trifluoromethyl)pyrazol-1-yl]methyl]-2-methyl-3-oxazol-2-yl-thiazolo[3,2-a]pyrimidin-5-one]			1.42
Cc1sc2nc(Cc3ccnc(C#N)c3)cc(=O)n2c1[C@@H]1C[C@H]1CO (relative stereo) [Example 20.12, 4-((3-(trans-2-(hydroxymethyl)cyclopropyl)-2-methyl-5-oxo-5H-thiazolo[3,2-a]pyrimidin-7-yl)methyl)picolinonitrile]		74	
CCNC(=O)c1c(C)sc2nc(CN(CC)c3ccccn3)cc(=O)n12 [compound 148, N-ethyl-7-[[ethyl(2-pyridyl)amino]methyl]-2-methyl-5-oxo-thiazolo[3,2-a]pyrimidine-3-carboxamide]			20.8
Cc1sc2nc(Cn3nc(Cl)cc3C)cc(=O)n2c1[C@@H]1C[C@H]1CO (relative stereo) [Example 15.3, 7-((3-chloro-5-methyl-1H-pyrazol-1-yl)methyl)-3-(trans-2-(hydroxymethyl)cyclopropyl)-2-methyl-5H-thiazolo[3,2-a]pyrimidin-5-one]	0.489	144	
CCN(Cc1cc(=O)n2c(-c3cc(F)cc(F)c3)c(C)sc2n1)c1ccc(F)cc1 [Example 5.55, 3-(3,5-difluorophenyl)-7-[(N-ethyl-4-fluoro-anilino)methyl]-2-methyl-thiazolo[3,2-a]pyrimidin-5-one]	4.7	111	
Cc1sc2nc(Cn3nc(C(F)(F)F)cc3C(F)(F)F)cc(=O)n2c1-c1cncnc1 [Example 15.30, 7-((3,5-bis(trifluoromethyl)-1H-pyrazol-1-yl)methyl)-2-methyl-3-(pyrimidin-5-yl)-5H-thiazolo[3,2-a]pyrimidin-5-one]	22	116	
Cc1sc2nc(Cn3nc(Cl)cc3C(F)(F)F)cc(=O)n2c1-c1cncc(Cl)c1 [compound 150, 3-(5-chloro-3-pyridyl)-7-[[3-chloro-5-(trifluoromethyl)pyrazol-1-yl]methyl]-2-methyl-thiazolo[3,2-a]pyrimidin-5-one]			17.3
Cc1sc2nc(Cc3cccc(C#N)c3F)cc(=O)n2c1C1CC1 [Example 24.4, 3-((3-cyclopropyl-2-methyl-5-oxo-5H-thiazolo[3,2-a]pyrimidin-7-yl)methyl)-2-fluorobenzonitrile]	15.3		
Cc1sc2nc(Cn3nc(C(F)(F)F)cc3Cl)cc(=O)n2c1C(O)C(F)(F)F (stereo not shown) [compound 203, 7-[[5-chloro-3-(trifluoromethyl)pyrazol-1-yl]methyl]-2-methyl-3-(2,2,2-trifluoro-1-hydroxy-ethyl)thiazolo[3,2-a]pyrimidin-5-one]			5.85
Cc1sc2nc(Cn3nc(C(F)(F)F)cc3Cl)cc(=O)n2c1C(=O)C(C)C [compound 177, 7-[[5-chloro-3-(trifluoromethyl)pyrazol-1-yl]methyl]-2-methyl-3-(2-methylpropanoyl)thiazolo[3,2-a]pyrimidin-5-one]			0.123
CCN(Cc1cc(=O)n2c(C#N)c(C)sc2n1)c1ccccn1 [Example 7.7, 7-((ethyl(pyridin-2-yl)amino)methyl)-2-methyl-5-oxo-5H-thiazolo[3,2-a]pyrimidine-3-carbonitrile]	21	148	
CCN(Cc1cc(=O)n2c(C(C)O)csc2n1)c1ccc(F)cc1 (stereo not shown) [Example 10.20, 7-[(N-ethyl-4-fluoro-anilino)methyl]-3-(1-hydroxyethyl)thiazolo[3,2-a]pyrimidin-5-one]	2.2	178	
CC(=O)c1c(C)sc2nc(Cc3cccc(C#N)c3F)cc(=O)n12 [Example 27.10, 3-((3-acetyl-2-methyl-5-oxo-5H-thiazolo[3,2-a]pyrimidin-7-yl)methyl)-2-fluorobenzonitrile]	29.1		
Cc1sc2nc(COc3ccc(F)cc3)cc(=O)n2c1C1CC1CO (single isomer, unassigned) [Example 4.1, 7-(4-Fluorophenoxymethyl)-3-[trans-2-(hydroxymethyl)cyclopropyl]-2-methyl-5H-[1,3]thiazolo[3,2-a]pyrimidin-5-one]	5.1	141	
N#Cc1cccc(Cc2cc(=O)n3c(C4CC4C(F)(F)F)c(Cl)sc3n2)c1F (stereo not shown) [compound 74, 3-[[2-chloro-5-oxo-3-[2-(trifluoromethyl)cyclopropyl]thiazolo[3,2-a]pyrimidin-7-yl]methyl]-2-fluoro-benzonitrile]			0.507
CCN(Cc1cc(=O)n2c(C(C)O)c(C)sc2n1)c1ccc(F)cc1 (stereo not shown) [Example 10.6, 7-[(N-ethyl-4-fluoro-anilino)methyl]-3-(1-hydroxyethyl)-2-methyl-thiazolo[3,2-a]pyrimidin-5-one]	0.548	176	
Cc1sc2nc(Cn3nc(C(F)(F)F)cc3Cl)cc(=O)n2c1C1CC1CO (stereo not shown) [compound 102, 7-[[5-chloro-3-(trifluoromethyl)pyrazol-1-yl]methyl]-3-[2-(hydroxymethyl)cyclopropyl]-2-methyl-thiazolo[3,2-a]pyrimidin-5-one]			0.0547
CNC(=O)c1c(C)sc2nc(Cc3cc(Cl)ccc3Cl)cc(=O)n12 [Example 21.48, 7-[(2,5-dichlorophenyl)methyl]-N,2-dimethyl-5-oxo-thiazolo[3,2-a]pyrimidine-3-carboxamide]	8.2	100	
Cc1sc2nc(Cn3nc(C(F)(F)F)cc3Cl)cc(=O)n2c1[C@@H]1C[C@@H]1C#N (single isomer, unassigned) [compound 126]			0.249
Cc1sc2nc(COc3ccc(Cl)cc3)cc(=O)n2c1[C@@H]1C[C@H]1CO (relative stereo) [Example 4.8, 7-(4-Chlorophenoxymethyl)-3-[trans-2-(hydroxymethyl)cyclopropyl]-2-methyl-5H-[1,3]thiazolo[3,2-a]pyrimidin-5-one]	4.4	99.3	
CCN(Cc1cc(=O)n2c3c(sc2n1)CCC3CCO)c1ccc(F)cc1 (stereo not shown) [Example 8.14, 6-[(N-ethyl-4-fluoro-anilino)methyl]-1-(2-hydroxyethyl)-2,3-dihydro-1H-cyclopenta[3,4]thiazolo[1,4-a]pyrimidin-8-one]	1.1	154	
